For 11 compounds, Kd results are on record in ChEMBL document CHEMBL3991601, “The target landscape of clinical kinase drugs” (Science, 2017).

Assay [1] deals with T1, Acyl-CoA dehydrogenase family member 11 (Homo sapiens, UniProt Q709F0).
T1 sequence (Q709F0 whole entry): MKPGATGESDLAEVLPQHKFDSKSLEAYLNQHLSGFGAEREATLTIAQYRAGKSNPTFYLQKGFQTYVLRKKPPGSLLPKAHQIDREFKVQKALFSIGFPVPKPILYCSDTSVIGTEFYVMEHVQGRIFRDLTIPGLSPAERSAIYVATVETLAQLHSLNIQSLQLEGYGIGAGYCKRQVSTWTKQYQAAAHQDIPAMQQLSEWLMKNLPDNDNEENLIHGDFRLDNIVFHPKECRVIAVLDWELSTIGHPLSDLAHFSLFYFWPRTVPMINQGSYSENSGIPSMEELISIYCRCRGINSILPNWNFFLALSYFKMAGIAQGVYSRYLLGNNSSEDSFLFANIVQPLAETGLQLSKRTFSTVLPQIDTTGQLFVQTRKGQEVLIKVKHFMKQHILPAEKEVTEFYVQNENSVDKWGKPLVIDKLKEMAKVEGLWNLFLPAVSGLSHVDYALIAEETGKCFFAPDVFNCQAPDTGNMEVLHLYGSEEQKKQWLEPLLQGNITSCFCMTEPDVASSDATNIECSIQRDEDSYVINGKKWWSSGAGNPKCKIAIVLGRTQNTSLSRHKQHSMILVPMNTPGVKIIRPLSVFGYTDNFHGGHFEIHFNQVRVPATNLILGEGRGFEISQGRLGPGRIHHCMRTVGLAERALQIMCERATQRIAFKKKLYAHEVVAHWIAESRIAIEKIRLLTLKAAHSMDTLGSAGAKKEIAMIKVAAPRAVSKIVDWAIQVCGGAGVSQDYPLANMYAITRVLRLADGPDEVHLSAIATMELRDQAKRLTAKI

The target of assay [2] is Mitogen-activated protein kinase 10 (Homo sapiens, UniProt P53779).
Sequence of Mitogen-activated protein kinase 10 (P53779 whole entry): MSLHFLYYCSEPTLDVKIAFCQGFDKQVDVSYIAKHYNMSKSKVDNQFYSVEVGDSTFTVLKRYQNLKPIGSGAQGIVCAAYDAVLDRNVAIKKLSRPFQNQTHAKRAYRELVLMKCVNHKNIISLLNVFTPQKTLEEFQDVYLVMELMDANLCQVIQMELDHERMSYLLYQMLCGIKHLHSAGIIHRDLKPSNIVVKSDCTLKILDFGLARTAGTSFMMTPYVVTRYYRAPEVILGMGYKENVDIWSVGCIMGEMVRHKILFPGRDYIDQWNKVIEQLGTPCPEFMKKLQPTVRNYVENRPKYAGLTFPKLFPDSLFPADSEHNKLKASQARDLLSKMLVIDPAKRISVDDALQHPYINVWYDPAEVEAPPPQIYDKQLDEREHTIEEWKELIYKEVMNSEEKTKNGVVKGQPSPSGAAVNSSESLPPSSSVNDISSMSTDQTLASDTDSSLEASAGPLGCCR
For assay [3], the target named is Macrophage-stimulating protein receptor (Homo sapiens, UniProt Q04912).
Sequence of Macrophage-stimulating protein receptor (Q04912 25-304 limits assumed): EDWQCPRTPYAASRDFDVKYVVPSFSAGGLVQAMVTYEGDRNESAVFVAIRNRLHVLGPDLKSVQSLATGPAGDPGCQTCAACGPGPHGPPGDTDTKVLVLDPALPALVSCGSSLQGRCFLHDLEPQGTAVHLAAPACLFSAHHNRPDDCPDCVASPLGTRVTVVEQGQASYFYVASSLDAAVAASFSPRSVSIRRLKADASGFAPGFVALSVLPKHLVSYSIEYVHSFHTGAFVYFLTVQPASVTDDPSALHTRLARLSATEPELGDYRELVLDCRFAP
Sequence of Macrophage-stimulating protein receptor (Q04912 310-1400 limits assumed): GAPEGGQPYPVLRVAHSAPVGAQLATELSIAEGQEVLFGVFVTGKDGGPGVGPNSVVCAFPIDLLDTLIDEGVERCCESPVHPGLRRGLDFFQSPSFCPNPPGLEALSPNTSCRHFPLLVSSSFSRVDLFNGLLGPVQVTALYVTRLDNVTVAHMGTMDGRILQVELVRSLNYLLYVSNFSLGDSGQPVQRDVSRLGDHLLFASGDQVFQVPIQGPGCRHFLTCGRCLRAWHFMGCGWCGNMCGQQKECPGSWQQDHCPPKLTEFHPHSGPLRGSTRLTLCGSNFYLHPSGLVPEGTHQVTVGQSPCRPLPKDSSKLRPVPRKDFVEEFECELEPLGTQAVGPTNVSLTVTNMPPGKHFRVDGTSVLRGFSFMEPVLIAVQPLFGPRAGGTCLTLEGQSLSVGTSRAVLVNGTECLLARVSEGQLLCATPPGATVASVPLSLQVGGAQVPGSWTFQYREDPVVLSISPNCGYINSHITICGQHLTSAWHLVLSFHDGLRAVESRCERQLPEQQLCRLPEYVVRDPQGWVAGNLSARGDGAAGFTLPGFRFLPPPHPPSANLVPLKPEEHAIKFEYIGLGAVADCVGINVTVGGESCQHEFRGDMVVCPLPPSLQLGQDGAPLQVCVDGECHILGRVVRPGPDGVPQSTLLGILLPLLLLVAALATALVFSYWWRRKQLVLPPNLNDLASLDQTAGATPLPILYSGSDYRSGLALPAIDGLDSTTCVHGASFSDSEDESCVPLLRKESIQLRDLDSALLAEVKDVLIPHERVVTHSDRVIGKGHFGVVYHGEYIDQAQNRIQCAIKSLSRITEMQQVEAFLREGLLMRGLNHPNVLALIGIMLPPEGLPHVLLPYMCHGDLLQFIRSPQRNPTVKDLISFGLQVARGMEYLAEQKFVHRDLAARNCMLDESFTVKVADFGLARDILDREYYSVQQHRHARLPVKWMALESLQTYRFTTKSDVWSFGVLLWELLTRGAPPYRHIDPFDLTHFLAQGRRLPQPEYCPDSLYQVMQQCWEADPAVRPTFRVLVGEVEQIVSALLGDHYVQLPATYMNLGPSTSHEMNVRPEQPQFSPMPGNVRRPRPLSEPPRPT
In assay [4] the target is T2, RNA cytidine acetyltransferase (Homo sapiens, UniProt Q9H0A0).
T2 sequence (Q9H0A0 whole entry): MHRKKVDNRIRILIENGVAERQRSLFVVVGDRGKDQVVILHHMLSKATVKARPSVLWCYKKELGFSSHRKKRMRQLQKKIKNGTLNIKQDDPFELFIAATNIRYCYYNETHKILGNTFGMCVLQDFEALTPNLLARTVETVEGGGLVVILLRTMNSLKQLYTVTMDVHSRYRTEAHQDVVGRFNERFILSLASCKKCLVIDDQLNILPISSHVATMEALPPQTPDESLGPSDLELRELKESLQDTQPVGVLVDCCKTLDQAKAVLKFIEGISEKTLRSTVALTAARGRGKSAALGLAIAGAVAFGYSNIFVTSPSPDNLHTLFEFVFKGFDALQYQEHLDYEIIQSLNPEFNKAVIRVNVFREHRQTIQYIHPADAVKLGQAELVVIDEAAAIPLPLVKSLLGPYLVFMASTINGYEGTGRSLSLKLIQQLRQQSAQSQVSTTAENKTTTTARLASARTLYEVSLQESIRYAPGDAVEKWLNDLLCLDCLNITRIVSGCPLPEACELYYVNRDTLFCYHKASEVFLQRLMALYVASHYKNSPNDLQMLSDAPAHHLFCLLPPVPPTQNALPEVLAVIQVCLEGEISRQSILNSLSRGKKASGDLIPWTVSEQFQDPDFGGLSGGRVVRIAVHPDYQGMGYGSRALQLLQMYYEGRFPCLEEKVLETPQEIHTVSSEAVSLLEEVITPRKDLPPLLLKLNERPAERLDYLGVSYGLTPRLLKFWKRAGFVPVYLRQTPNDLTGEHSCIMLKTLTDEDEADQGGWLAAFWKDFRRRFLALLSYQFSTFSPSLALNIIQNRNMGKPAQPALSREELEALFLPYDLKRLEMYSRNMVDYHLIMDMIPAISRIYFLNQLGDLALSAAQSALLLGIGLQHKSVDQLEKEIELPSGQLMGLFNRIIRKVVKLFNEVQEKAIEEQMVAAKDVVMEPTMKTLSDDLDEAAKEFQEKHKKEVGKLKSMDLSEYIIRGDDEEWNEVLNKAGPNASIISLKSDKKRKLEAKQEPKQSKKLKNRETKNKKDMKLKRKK

For assay [5], the target named is T3, Serine/threonine-protein kinase Nek3 (Homo sapiens, UniProt P51956).
T3 sequence (P51956 whole entry): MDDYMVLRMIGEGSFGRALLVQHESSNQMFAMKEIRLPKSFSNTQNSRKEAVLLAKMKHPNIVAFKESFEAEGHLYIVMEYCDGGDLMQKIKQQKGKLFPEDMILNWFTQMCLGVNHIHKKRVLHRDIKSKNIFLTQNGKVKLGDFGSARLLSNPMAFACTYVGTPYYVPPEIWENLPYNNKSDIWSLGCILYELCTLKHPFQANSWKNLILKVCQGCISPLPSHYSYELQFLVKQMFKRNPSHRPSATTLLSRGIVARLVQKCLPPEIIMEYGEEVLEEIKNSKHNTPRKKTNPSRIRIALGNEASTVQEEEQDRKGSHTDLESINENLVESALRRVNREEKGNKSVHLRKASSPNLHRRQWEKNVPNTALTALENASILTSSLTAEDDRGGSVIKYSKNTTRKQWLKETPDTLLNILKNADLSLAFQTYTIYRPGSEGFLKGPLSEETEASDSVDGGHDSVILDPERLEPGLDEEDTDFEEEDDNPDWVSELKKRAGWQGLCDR

For assay [6], the target named is T4, Phosphatidylinositol 5-phosphate 4-kinase type-2 alpha (Homo sapiens, UniProt P48426).
T4 sequence (P48426 whole entry): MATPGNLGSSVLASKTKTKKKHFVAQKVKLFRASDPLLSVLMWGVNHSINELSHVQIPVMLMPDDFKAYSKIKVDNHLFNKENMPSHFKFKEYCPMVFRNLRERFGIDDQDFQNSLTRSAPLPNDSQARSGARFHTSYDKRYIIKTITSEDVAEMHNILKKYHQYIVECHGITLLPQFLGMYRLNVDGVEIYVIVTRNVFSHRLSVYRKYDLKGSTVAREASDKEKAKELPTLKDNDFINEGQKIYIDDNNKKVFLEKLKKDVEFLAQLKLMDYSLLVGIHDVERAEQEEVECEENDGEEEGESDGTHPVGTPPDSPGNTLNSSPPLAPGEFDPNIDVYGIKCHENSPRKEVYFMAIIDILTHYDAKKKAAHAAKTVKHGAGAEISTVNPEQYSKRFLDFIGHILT

Broadly, the Kd is the free concentration of one partner at which half of the binding sites on the other are occupied at equilibrium, for simple one-to-one binding.

The source made the active and inactive calls. Where only a bound is given, the exact number is not on record here.
Note: in the data inactive means no Kd found up to 30 µM.

Regarding `COc1cc2ncnc(Oc3cccc(NC(=O)Nc4cc(C(C)(C)C(F)(F)F)on4)c3)c2cc1OC` [CEP-32496], the Kd in assay [1] was > 30 µM (inactive); in assay [2], 0.378 µM; in assay [3], > 30 µM (inactive); in assay [4], > 30 µM (inactive); in assay [5], > 30 µM (inactive); in assay [6], > 30 µM (inactive).
On to `Cc1cc(Nc2ncc(Cl)c(Nc3ccccc3S(=O)(=O)C(C)C)n2)c(OC(C)C)cc1C1CCNCC1` [CERITINIB], for which the Kd in assay [1], in assay [2], in assay [3], in assay [4], in assay [5] and in assay [6] was > 30 µM (inactive) throughout.
Take `COc1c(OCCCN2CCOCC2)ccc2c1N=C(NC(=O)c1cnc(N)nc1)N1CCN=C21` [COPANLISIB]: the Kd in assay [1], in assay [2], in assay [3], in assay [4], in assay [5] and in assay [6] was > 30 µM (inactive) throughout.
On to `COCC(=O)NC/C=C/c1ccc2ncnc(Nc3ccc(Oc4ccc(C)nc4)c(C)c3)c2c1` [CP-724714], for which the Kd in assay [1], in assay [2], in assay [3], in assay [4], in assay [5] and in assay [6] was > 30 µM (inactive) in each case.
For `C#Cc1cccc(Nc2ncnc3cc(OC)c(OCCCCCCC(=O)NO)cc23)c1` [CUDC-101], the Kd in assay [1], in assay [2], in assay [3], in assay [4], in assay [5] and in assay [6] was > 30 µM (inactive) throughout.
On to `CC(C)(C)c1nc(-c2cccc(NS(=O)(=O)c3c(F)cccc3F)c2F)c(-c2ccnc(N)n2)s1` [DABRAFENIB], for which the Kd in assay [1], in assay [2], in assay [3], in assay [4], in assay [5] and in assay [6] was > 30 µM (inactive) throughout.
`O=C(Nc1nc2cccc(-c3ccc(CN4CCS(=O)(=O)CC4)cc3)n2n1)C1CC1` [FILGOTINIB]: the Kd in assay [1] is > 30 µM (inactive); in assay [2] it was 2.14 µM (active); in assay [3], > 30 µM (inactive); in assay [4], > 30 µM (inactive); in assay [5], > 30 µM (inactive); in assay [6] it was > 30 µM (inactive).
For `Cc1cccc(-c2nn3c(c2-c2ccnc4ccc(C(N)=O)cc24)CCC3)n1` [GALUNISERTIB], the Kd in assay [1], in assay [2], in assay [3], in assay [4], in assay [5] and in assay [6] was > 30 µM (inactive) throughout.
For `CCn1cc(-c2ccnc3[nH]c(-c4cccc(CN(C)C)c4)cc23)c(-c2ccc(NC(=O)N(C)C)cc2)n1` [GSK-1070916], the Kd in assay [1], in assay [2], in assay [3], in assay [4], in assay [5] and in assay [6] was > 30 µM (inactive) in each case.
Consider `COc1ccc(S(=O)(=O)N(C(C)=O)c2ccccc2/C=C/c2cc[n+]([O-])cc2)cc1` [HMN-214], for which the Kd in assay [1], in assay [2], in assay [3], in assay [4], in assay [5] and in assay [6] was > 30 µM (inactive) in each case.
`O=C(Nc1cc(C(F)(F)F)cc(C(F)(F)F)c1)c1cc(Cl)ccc1O` [IMD-0354]: the Kd in assay [1], in assay [2], in assay [3], in assay [4], in assay [5] and in assay [6] was > 30 µM (inactive) each time.
